Experiments:
[1] = tested on: fertile men and subfertile men; assay: Spermcount after oral administration of folic acid, zinc or both, versus initial spermcount; format: in vivo; set-up: key to Percentage improvement of spermcount after administration of active agents, compared to initial spermcount: 0 means about neutral; The number of + signs indicates activity; ++: The number of + signs indicates activity; +++: The number of + signs indicates activity; +++(+): The number of + signs indicates activity; settings: for Percentage improvement of spermcount after administration of active agents, compared to initial spermcount: daily administration during 5 months (table head; text says three months)
spermatozoa = settings: 10 mg over 30 days; cited from earlier work
[2] = tested on: men suffering from round cell idiopathic syndrome; settings: 15 mg per day during 3 months; men with round cell idiopathic syndrome; cited from earlier work
[3] = tested on: males that suffer from idopathic oligospermia; settings: 220 mg zinc sulphate; idiopathic oligospermia; cited from earlier work
fowl seminal plasma = settings: zinc concentration above 3 μg per ml storage medium; cited from earlier work

SMILES	Percentage improvement of spermcount after administration of active agents, compared to initial spermcount ([1]; fertile men)	sperm count ([1]; folate alone, especially subfertile men)	Percentage improvement of spermcount after administration of active agents, compared to initial spermcount ([1]; subfertile men)	sperm counts and motility and DNA content of spermatozoa (spermatozoa)	spermatozoa number and fertility [2]	sperm counts ([1]; both groups, so also in fertile men)	sperm and number of spermatozoa having normal morfology and motility [3]	fertility of fowl seminal plasma (fowl seminal plasma)
Nc1nc2ncc(CNc3ccc(C(=O)N[C@@H](CCC(=O)O)C(=O)O)cc3)nc2c(=O)[nH]1 [5 mg folate, folic acid]	0	increases sperm count	+++	did not result in an increase				
Nc1nc(=O)c2c([nH]1)NCC(CNc1ccc(C(=O)N[C@@H](CCC(=O)O)C(=O)O)cc1)N2C=O (mixture of isomers) [folinic acid]					increases spermatozoa number and fertility			
O=S(=O)([O-])[O-].[Zn+2] [15 mg zinc, zinc sulphate]	+		++			increases sperm counts in both groups	improved significantly	reduced the fertility
